Assay [1] has as its system KB. In words: Cytotoxicity (extracted with dichloromethane-methanol) was evaluated against KB tumor cell line. Format: functional. As to conditions: Homo sapiens, read-out: ID50 (the source's name).
Assay [2] has as its system KB. The experiment in a line: Cytotoxicity (dichloromethane extract) was evaluated against KB tumor cell line. The conditions noted are these: Homo sapiens, read-out: ID50 (the source's name). Format: functional.

Structures are written as SMILES. Converted amounts (≈) assume the structure as drawn.

For the molecule `CC(C)CCC[C@@H](C)[C@H]1[C@@H](O)C[C@H]2[C@@H]3CC(=O)[C@H]4CC(=O)CC[C@]4(C)[C@H]3CC[C@]12C`, the figures for the IC50 with KB [1] and in the assay on KB [2] were 0.5 µg/mL (≈ 1.2 µM) and 5 µg/mL (≈ 12 µM), respectively.

The values above are taken from ChEMBL document CHEMBL1132815, “16Beta-hydroxy-5alpha-cholestane-3,6-dione, a novel cytotoxic oxysterol from the red alga Jania rubens” (2000).
